Data on 2 compounds can be found in patent US7635779B2, “Oxy substituted flavones as antihyperglycemic and antidyslipidemic agents” (Council of Scientific & Industrial Research, priority 2004, dated 2009).

The data set concerns Swiss mice. Put plainly: Gross behaviour: motor responses (SMA, gait, posture). The class given is in vivo, mouse. Also on record: key to SMA Score: scale 0-9; control group SMA = 4. The note with it: for Effect on motor responses: 100 mg/kg; for SMA Score: 100 mg/kg p.o., control score 4. Here is the method:
34 and 49 (100 mg/kg, p.o.) was administered in forenoon.
The gross behavioral parameters were observed as follows (based on Irwin protocol):
• i). Spontaneous motor activity [SMA]: Scored on a scale of 0-9 in which SMA in control group was assigned score 4. • ii). Posture/Position: Normal upright posture (+: present or −: absent) • iii). Gait: The mouse is allowed to move on the edge of the cage for 1 min and straight movements without fall or staggering is considered as normal. The gait is recorded as normal or abnormal; if abnormal description is provided. • iv). Ataxia: Any in-coordination in movements occurring in absence of involuntary movements. (+: present or −: absent) • v). Tremor: Involuntary movements (jerking of entire body or limbs) due to alternating contraction of muscles. (+: present or −: absent) • vi). Convulsions: Alternate contraction (flexion) and extension [clonic], or sustained extension [tonic] of limbs resulting into loss of upright posture (+: present or −: absent). • vii). Straub's tail: A sustained (>30 sec) raising of tail (making an angle >60° with the body) (+: present or −: absent) • viii). Catalepsy: A condition in which body or limbs remain passively in any position in which they are placed. It is tested by the placing forepaws on a metallic rod placed at height of 6 cm and if forepaws are not withdrawn within 10 sec catalepsy is considered to be positive (+: present or −: absent). • ix). Abnormal (Bizarre) behaviour: Stereotypy, head shaking, head searching, upright walking, and circling (+: present or −: absent). Results

As to `CC(C)NCC(O)COc1ccc2c(=O)cc(-c3cc(O)cc(O)c3)oc2c1` (stereo not shown) [Compound 49, 3′,5′-Dihydroxy-7-(2-hydroxy-3-iso-propylamino-propoxy)-flavone], the “Effect on motor responses” value is on record as “did not show any significant effect”. Moreover, the “SMA Score” value (0 min) was determined as 4. Besides, the “SMA Score” value (30 min) was 4. Also, for the setting “60 min”, the “SMA Score” value was 4. For the same compound, where the note is “90 min”, the “SMA Score” value was 4. Besides, the “SMA Score” value (120 min) came to 4. Further, the “SMA Score” value (150 min) came to 4. For the same compound, the “SMA Score” value (180 min) is on record as 4.

As for `CC(C)(C)NCC(O)COc1ccc2c(=O)cc(-c3cc(OCc4ccccc4)cc(OCc4ccccc4)c3)oc2c1` (stereo not shown) [Compound 34, 7-(3-tert-Butylamino-2-hydroxy-propoxy)-3′,5′-dibenzyloxy-flavone], the “Effect on motor responses” value is on record as “did not show any significant effect”. In addition, the “SMA Score” value (0 min) was found to be 4. In addition, where the note is “30 min”, the “SMA Score” value was found to be 4. Besides, the “SMA Score” value (60 min) is on record as 4. Further, the “SMA Score” value (90 min) was 4. Besides, where the note is “120 min”, the “SMA Score” value came out at 4. Further, the “SMA Score” value (150 min) was determined as 4. Besides, the “SMA Score” value (180 min) was 4.
